Measurements taken from US20250114462A1, “HYDROPHILIC FUNCTIONALIZED PARTICLES IN THE DELIVERY OF HYDROPHOBIC DRUGS” (NEW JERSEY INSTITUTE OF TECHNOLOGY, priority 2023, published 2025).

Assay: In vitro dissolution profile (USP-42 paddle method)
Assay type: physicochemical
Details: for 50% dissolution time (T50): composites with 0.5 to 1.0% of HFP
Procedure: Dissolution measurements were carried out using USP-42 paddle method with Symphony 7100 Distek dissolution instrument. Agilent 8453 model UV-Visible spectrophotometer was used at a wavelength at 295.0 nm for the reference drug Griseofulvin standard absorbance measurements that calibrated to measure the formulation polymer incorporated drugs concentration and dissolution percentage estimation.

Initial dissolution rate	50% dissolution time (T50)	Structure (SMILES)
74.3 µg/min		COc1ccc(-n2nc(C(N)=O)c3c2C(=O)N(c2ccc(N4CCCCC4=O)cc2)CC3)cc1 [Apixaban (APX), apixaban]
84.1 µg/min	138	CC(=O)O[C@]1(C(C)=O)CC[C@H]2[C@@H]3C=C(C)C4=CC(=O)CC[C@]4(C)[C@H]3CC[C@@]21C [Megestrol Acetate (MA), megestrol acetate]
110.3 µg/min	40	COC1=CC(=O)C[C@@H](C)[C@]12Oc1c(Cl)c(OC)cc(OC)c1C2=O [Griseofulvin (GF), griseofulvin]
